Data taken from PMC10180515, “Biological Evaluation of Triorganotin Derivatives as Potential Anticancer Agents” (Molecules, 2023).
“And” between values parts separate entries of the source, which are not always exact repeats. Identical values can stand only once. Like-named read-outs stand apart in the source and are kept apart here.

Legend:
CAL-27 cells [1] = experiment: Annexin-V/7-AAD double staining flow cytometry, CAL-27; assay type: cell-based, human; conditions: CAL-27, 4 h; TBT-OCOCF3 20 µM, WMN 0.5 µM; mean ± SD
U937 cells [2] = assay type: cell-based; conditions: 18 h
CAL-27 cells [3] = experiment: MTT assay of metabolic activity, CAL-27; assay type: cell-based, human
MCF-10A cells [4] = experiment: MTT assay of metabolic activity, MCF-10A; assay type: cell-based, human
PBMCs = experiment: MTT assay of metabolic activity, PBMCs; assay type: cell-based, human
U937 cells [5] = experiment: MTT assay of metabolic activity, U937; assay type: cell-based
CAL-27 cells [6] = experiment: Trypan blue exclusion viability test, CAL-27; assay type: cell-based, human; conditions: CAL-27, 24 h
MCF-10A cells [7] = experiment: Trypan blue exclusion viability test, MCF-10A; assay type: cell-based, human; conditions: 24 h
12 bp DNA duplex = experiment: NMR interaction with 12 bp DNA duplex; assay type: binding; conditions: 0.2 mM duplex, 6 h incubation; cisplatin two equivalents, TBT-OCOCF3 two or five equivalents
Experimental: In order to investigate the mechanisms underlying the cytotoxicity exerted by TBT-OCOF3, a first approach was to verify whether they were based on a direct interaction with DNA, similar to what was described for metal derivatives such as cisplatin. To this purpose, we investigated if TBT-OCOCF3 could bind to DNA using NMR. For TBT-OCOCF3, the 1D and 2D spectra of 12 bp DNA were acquired in the presence or absence of the compound. As a positive control for the interaction, cisplatin was assayed, which forms adducts or inter- and intra-strand crosslinks resulting in interference in the replication machinery, G2/M cell arrest, and cell death by apoptosis or necrosis. A solution containing 0.2 mM of the duplex, whose sequences are indicated in Figure 3, was annealed directly in the NMR tube. The double-helix formation was confirmed by the appearance of low-field signals belonging to the T- and G-NH groups (Figure 3a, left panel). The DNA’s aromatic signals were assigned to the different types of ^1H nuclei using a combination of ^1H-NMR and ^1H-^1H TOCSY experiments (Figure S3 in the Supplementary Materials) and chemical shift values (Figure 3a, right panel).

[8] = phosphate buffer pH 7.4, 37 °C, nominal concentration 400 µM
Experimental: For the NMR studies, the compounds were dissolved in DMSO-d6 and a phosphate buffer (50 mM, 5% D2O, pH = 7.4) containing, as an internal standard, 2,2,4,4-tetradeuterumtrimethylsilylpropionic acid (TSP). The NMR experiments were performed in D2O at 25 °C and recorded with a Bruker Avance spectrometer operating at 700 MHz for ^1H, equipped with a 5 mm inverse TXI probe, z-axis gradients, and a Sample Xpress Lite autosampler. The ^1H-NMR spectra were recorded with a spectral window of 15 ppm, 16 k complex points, and a relaxation delay of 10 s for a total of 16 transients.

[9] = system: CAL-27 cells, MCF-10A cells, PBMCs, and U937 cells; conditions: read-out: IC50 metabolic activity (MTT) in all tested cells; 24 h
CAL-27 cells [10] = conditions: CAL-27, 2-NBDG, 1 h, 10 μM and 20 μM
MCF-10A cells [11] = conditions: 2-NBDG, 1 h, 10 μM and 20 μM
[12] = 24 h, ± SD, three experiments in triplicate
[13] = 20–80 μM, even at the higher concentration tested

COC[C@H]1OC(=O)c2coc3c2[C@@]1(C)C1=C(C3=O)[C@@H]2CCC(=O)[C@@]2(C)C[C@H]1OC(C)=O [WMN, wortmannin]
Anx+/7AAD+ cells (CAL-27 cells [1]): 0.78 ± 0.04%
Anx+/7AAD- cells (CAL-27 cells [1]): 6.42 ± 2.45%
Anx-/7AAD+ cells (CAL-27 cells [1]): 2.99 ± 0.02%
Anx-/7AAD- cells (CAL-27 cells [1]): 89.8 ± 4.63%
Effect on rapamycin-induced autophagy (U937 cells [2]; U937, wortmannin 0.5 μM cotreatment with rapamycin 0.5 μM): significantly inhibited

N.N.[Cl][Pt][Cl] [Cisplatin, cis-diaminedichloroplatinum (II)]
IC50 (CAL-27 cells [3]; [12]): 139 ± 59.5 µM
IC50 (MCF-10A cells [4]; [12]): 21.5 ± 0.04 µM
IC50 (PBMCs; 24 h, ± SD, IL-2 stimulated PBMCs of healthy individuals): 52.5 ± 5.88 µM
IC50 (U937 cells [5]; [12]): 38.1 ± 3.23 µM
Susceptibility of cells to treatment (viable cell number) (CAL-27 cells [6]; [13]): resistant
Susceptibility of cells to treatment (viable cell number) (MCF-10A cells [7]; [13]): resistant
Interaction with 12 bp DNA (change in NMR spectrum) (12 bp DNA duplex): showed evidence of the interaction

CCC[CH2][Sn]([Cl])([CH2]CCC)[CH2]CCC [TBT-Cl, tributyltin chloride]
Solubility [8]: 61 µM
IC50 (CAL-27 cells [3]): 0.91 ± 0.53 µM
IC50 (MCF-10A cells [4]): 1.22 ± 0.41 µM
IC50 (PBMCs): ≤ 1 µM
IC50 (U937 cells [5]): 0.42 ± 0.3 µM
Effect on number of viable cells (CAL-27 cells [6]; all of the concentrations tested (1.25 to 20 μM)): greatly decreased the number of viable cells
Inhibition of viability (MCF-10A cells [7]; all of the tested concentrations (1.25 to 20 μM)): ≥ 90%
IC50 [9]: ≤ 1 µM and ~1 µM

CO[C@H]1C[C@@H]2CC[C@@H](C)[C@@](O)(O2)C(=O)C(=O)N2CCCC[C@H]2C(=O)O[C@H]([C@H](C)C[C@@H]2CC[C@@H](O)[C@H](OC)C2)CC(=O)[C@H](C)/C=C(\C)[C@@H](O)[C@@H](OC)C(=O)[C@H](C)C[C@H](C)/C=C/C=C/C=C/1C [rapamycin]
Autophagic-specific fluorescent green signal compared to control cells (U937 cells [2]; U937, 0.5 μM): significant increase

CCC[CH2][Sn]([CH2]CCC)([CH2]CCC)[O][Sn]([CH2]CCC)([CH2]CCC)[CH2]CCC [TBT-O, bis(tributyltin) oxide]
Solubility [8]: 42 µM
IC50 (CAL-27 cells [3]): 13.2 µM
IC50 (MCF-10A cells [4]): 4.93 ± 2.33 µM
IC50 (PBMCs): 2.96 ± 1.35 µM
IC50 (U937 cells [5]): 1.82 ± 0.21 µM
Effect on trypan-blue-negative (viable) cells recovered (CAL-27 cells [6]; 10 µM and 20 µM): complete inhibition
Inhibition of viability (MCF-10A cells [7]; 5 µM): 90%
Inhibition of viability (MCF-10A cells [7]; 10 µM and 20 µM): 100%
Glucose uptake inhibition (CAL-27 cells [10]): significantly inhibited
Glucose uptake inhibition (MCF-10A cells [11]): significantly inhibited
